Structures can show the parent of a compound that is named as a salt.
Legend:
[1] = tested on: rabbits (New Zealand White); assay: Ocular hypotensive effect in rabbits; format: in vivo, rabbit; conditions: Oryctolagus cuniculus, topical, 0.04 mL dropped to one eye, vehicle to contralateral eye, test compound concentration of 2%, read-out: Maximum ocular hypotensive rate
NG108-15 cells = assay: Neurite outgrowth promoting effect; format: cell-based; conditions: NG108-15 cells, 10, 3, 1, or 0.3 μmol/L, 24 hours, compared with cells cultured in the absence of the compound
Procedure: To examine the usefulness of the compound of the present invention as a therapeutic agent for neurodegenerative diseases, NG108-15 cells frequently used as a model of neurons were cultured in the presence of the compound of the present invention, which was then evaluated for its neurite outgrowth promoting effect. Examples 15 and 49 were used as test compounds.
Each test compound was dissolved in dimethyl sulfoxide and diluted to prepare a test compound solution with a predetermined concentration.
The NG108-15 cells (obtained from ATCC) were cultured in a Dulbecco's modified eagle's medium containing 5% fetal bovine serum and 1×HAT (hypoxanthine, aminopterin, and thymidine). The cells were inoculated at 12,000 cells/well to a 24-well plate and statically cultured at 37° C. for 12 hours in an environment of 5% CO2 and 95% air. Then, each test compound was added at a final concentration of 10, 3, 1, or 0.3 μmol/L. 24 hours later, the degree of neurite outgrowth was observed under an inverted microscope.

[2] = tested on: rabbits (New Zealand White); assay: Ocular hypotensive effect in rabbits; format: in vivo, rabbit; conditions: Oryctolagus cuniculus, topical, 0.04 mL dropped to one eye, vehicle to contralateral eye, test compound solution concentration 10 (W/V), read-out: Maximum ocular hypotensive rate
Procedure: The compound of the present invention was administered to rabbits (New Zealand White, sex: male, 3 to 7 per group) and evaluated for its ocular hypotensive effect.
Each test compound was dissolved in a vehicle (1.04 g of sodium dihydrogen phosphate dihydrate and 0.5 g of sodium chloride dissolved in purified water and then adjusted to pH 7.0 with sodium hydroxide to make the total amount to 100 mL) to prepare a test compound solution with a concentration of 10 (W/V).
The intraocular pressures of the rabbits were measured using Tiolat TonoVet handheld tonometer immediately before administration of test compound. The test compound solution and the vehicle were dropped at a volume of 0.04 mL to one eye and the contralateral eye, respectively, and the intraocular pressures were measured over time in the same way as above. The rate of the intraocular pressure of the eye receiving the test compound solution to that of the eye receiving the vehicle was calculated as an ocular hypotensive rate.

[3] = tested on: spontaneously hypertensive rats (SHR/Izm); assay: Blood pressure lowering effect in spontaneously hypertensive rats; format: in vivo, rat; conditions: male, intraperitoneal
Procedure: The compound of the present invention was intraperitoneally administered to spontaneously hypertensive rats (SHR/Izm, sex: male, 4 to 6 rats per group) and evaluated for its blood pressure lowering effect. Examples 32, 34, and 35 were used as test compounds.
Each test compound was dissolved in saline and diluted to prepare a test compound solution with a predetermined concentration.
The test drug was intraperitoneally administered at a dose of 10 mg/kg (except for 30 mg/kg for Example 34) to the animals (4 to 6 rats per group), and their blood pressures and pulse rates were measured over time using Softron Indirect Blood Pressure Meter BP-98A.

rats (SD) = assay: Blood pressure lowering effect in rats; format: in vivo, rat; conditions: male, intraperitoneal, 10 mg/kg
Procedure: The compound of the present invention was intraperitoneally administered to rats (SD, sex: male, 6 rats per group) and evaluated for its blood pressure lowering effect. Example 18 was used as a test compound.
The test compound was dissolved in saline and diluted to prepare a test compound solution with a predetermined concentration.
The test drug was intraperitoneally administered at a dose of 10 mg/kg to the rats (6 rats per group), and their blood pressures and pulse rates were measured over time using Softron Indirect Blood Pressure Meter BP-98A.

**Q.** `C[C@@H]1CNCCCCN1S(=O)(=O)c1ccc2c(SCCN)nccc2c1` [Example 52, (R)-1-(2-aminoethylthio)-6-(2-methyl-1,4-diazocan-1-ylsulfonyl)isoquinoline trihydrochloride] was tested. Which inhibition in vivo at 2 % [1] did it give?
**A.** ≥ 15%

**Q.** With `Cc1c(S(=O)(=O)N2CCCNC[C@@H]2C)ccc2cnccc12` [Example 49, (S)-5-methyl-6-(2-methyl-1,4-diazepan-1-ylsulfonyl)isoquinoline] as the molecule, how does the “degree of neurite outgrowth” value (NG108-15 cells) read?
**A.** remarkable neurite outgrowth

**Q.** What about the inhibition in vivo at 10 % [2] of the same molecule?
**A.** ≥ 15%

**Q.** `C[C@H]1CCNCCN1S(=O)(=O)c1ccc2cnccc2c1` [Example 32, (S)-6-(7-methyl-1,4-diazepan-1-ylsulfonyl)isoquinoline dihydrochloride] was tested. Which pulse rate ([3]; 10 mg/kg) did it give?
**A.** increased

**Q.** And the “systolic blood pressure lowered compared with the value before administration” value ([3]; 10 mg/kg)?
**A.** 16%

**Q.** What about the inhibition in vivo at 10 % [2] of the same molecule?
**A.** ≥ 15%

**Q.** What does the source list for `C[C@@H]1CNCCCN1S(=O)(=O)c1ccc2cnccc2c1` [Example 18, (R)-6-(2-methyl-1,4-diazepan-1-ylsulfonyl)isoquinoline dihydrochloride]?
**A.** pulse rate (rats (SD)): increased; systolic blood pressure lowered compared with the value before administration (rats (SD); maximum lowering): ≥ 30%; inhibition in vivo at 10 % [2]: ≥ 15%

**Q.** For `O=S(=O)(c1cc(F)c2cnccc2c1)N1CCCNCC1` [Example 6, 6-(1,4-diazepan-1-ylsulfonyl)-8-fluoroisoquinoline dihydrochloride], which inhibition in vivo at 10 % [2] is on record?
**A.** 5 to 15%

**Q.** `C[C@H]1CNCCCN1S(=O)(=O)c1ccc2cnccc2c1` [Example 12, (S)-6-(2-methyl-1,4-diazepan-1-ylsulfonyl)isoquinoline dihydrochloride] was tested. Which inhibition in vivo at 10 % [2] did it give?
**A.** ≥ 15%

**Q.** What does the source list for `C[C@@H]1CCNC[C@@H](C)N1S(=O)(=O)c1ccc2cnccc2c1` [Example 35, (2R,7R)-6-(2,7-dimethyl-1,4-diazepan-1-ylsulfonyl)isoquinoline dihydrochloride]?
**A.** pulse rate ([3]; 10 mg/kg): increased; inhibition in vivo at 10 % [2]: ≥ 15%

**Q.** How did the inhibition in vivo at 2 % [1] turn out when `C[C@@H]1CCNCCN1S(=O)(=O)c1ccc2c(SCCN)nccc2c1` [Example 51, (R)-1-(2-aminoethylthio)-6-(7-methyl-1,4-diazepan-1-ylsulfonyl)isoquinoline trihydrochloride] was run?
**A.** ≥ 15%

**Q.** For `C[C@@H]1CNCCCN1S(=O)(=O)c1cc2ccncc2cc1F` [Example 25, (R)-6-(2-methyl-1,4-diazepan-1-ylsulfonyl)-7-fluoroisoquinoline dihydrochloride], which inhibition in vivo at 10 % [2] is on record?
**A.** ≥ 15%

**Q.** Which inhibition in vivo at 10 % [2] does the source give for `O=S(=O)(c1ccc2cnccc2c1)N1CCCCNCC1` [Example 21, 6-(1,4-diazocan-1-ylsulfonyl)isoquinoline dihydrochloride] here?
**A.** ≥ 15%

**Q.** `C[C@@H]1CNCCCCCN1S(=O)(=O)c1ccc2cnccc2c1` [Example 33, (R)-6-(2-methyl-1,4-diazonan-1-ylsulfonyl)isoquinoline dihydrochloride] was tested. Which inhibition in vivo at 10 % [2] did it give?
**A.** ≥ 15%

**Q.** How did the inhibition in vivo at 10 % [2] turn out when `C[C@@H]1CNC/C=C\CN1S(=O)(=O)c1ccc2cnccc2c1` [Example 8, (R,Z)-6-(2-methyl-2,3,4,5-tetrahydro-1,4-diazocin-1(8H)-ylsulfonyl)isoquinoline dihydrochloride] was run?
**A.** ≥ 15%

**Q.** Which inhibition in vivo at 10 % [2] does the source give for `CNCC(=O)N1CCCCN(S(=O)(=O)c2ccc3cnccc3c2)[C@H](C)C1` [Example 48, (R)-6-(4-sarcosyl-2-methyl-1,4-diazocan-1-ylsulfonyl)isoquinoline dihydrochloride] here?
**A.** 5 to 15%

**Q.** Which inhibition in vivo at 10 % [2] does the source give for `C[C@H]1CCNCCCN1S(=O)(=O)c1ccc2cnccc2c1` [Example 42, (S)-6-(2-methyl-1,5-diazocan-1-ylsulfonyl)isoquinoline dihydrochloride] here?
**A.** ≥ 15%

**Q.** How did the inhibition in vivo at 10 % [2] turn out when `C[C@H]1CNCCCCN1S(=O)(=O)c1ccc2cnccc2c1` [Example 24, (S)-6-(2-methyl-1,4-diazocan-1-ylsulfonyl)isoquinoline dihydrochloride] was run?
**A.** ≥ 15%

**Q.** `C[C@@H]1CN(C(=O)CN)CCCCN1S(=O)(=O)c1ccc2cnccc2c1` [Example 47, (R)-6-(4-glycyl-2-methyl-1,4-diazocan-1-ylsulfonyl)isoquinoline dihydrochloride] was tested. Which inhibition in vivo at 10 % [2] did it give?
**A.** 5 to 15%

**Q.** With `C[C@@H]1CCCNCCN1S(=O)(=O)c1ccc2cnccc2c1` [Example 37, (R)-6-(8-methyl-1,4-diazocan-1-ylsulfonyl)isoquinoline dihydrochloride] as the molecule, how does the inhibition in vivo at 10 % [2] read?
**A.** ≥ 15%

**Q.** Which inhibition in vivo at 10 % [2] does the source give for `O=S(=O)(c1ccc2cnccc2c1)N1CCCNC[C@H]1CF` [Example 26, (S)-6-(2-fluoromethyl-1,4-diazepan-1-ylsulfonyl)isoquinoline dihydrochloride] here?
**A.** ≥ 15%

**Q.** For `C[C@@H]1CCNCCN(S(=O)(=O)c2ccc3cnccc3c2)C1` [Example 31, (R)-6-(7-methyl-1,4-diazocan-1-ylsulfonyl)isoquinoline dihydrochloride], which inhibition in vivo at 10 % [2] is on record?
**A.** ≥ 15%

**Q.** What does the source list for `C[C@H]1CNCCCN1S(=O)(=O)c1ccc2cnccc2c1Br` [Example 15, (S)-5-bromo-6-(2-methyl-1,4-diazepan-1-ylsulfonyl)isoquinoline dihydrochloride]?
**A.** degree of neurite outgrowth (NG108-15 cells): remarkable neurite outgrowth; inhibition in vivo at 10 % [2]: ≥ 15%

**Q.** For `O=S(=O)(c1ccc2cnccc2c1)N1CCCCNCC1CF` (stereo in doubt) [Example 27, (R)-6-(2-fluoromethyl-1,4-diazocan-1-ylsulfonyl)isoquinoline dihydrochloride], which inhibition in vivo at 10 % [2] is on record?
**A.** ≥ 15%

**Q.** `C[C@@H]1CNCCCN1S(=O)(=O)c1ccc2cnccc2c1Br` [Example 29, (R)-5-bromo-6-(2-methyl-1,4-diazepan-1-ylsulfonyl)isoquinoline dihydrochloride] was tested. Which inhibition in vivo at 10 % [2] did it give?
**A.** ≥ 15%

**Q.** How did the inhibition in vivo at 10 % [2] turn out when `NCC(=O)N1CCCN(S(=O)(=O)c2ccc3cnccc3c2)CC1` [Example 45, 6-(4-glycyl-1,4-diazepan-1-ylsulfonyl)isoquinoline dihydrochloride] was run?
**A.** 5 to 15%

**Q.** For `C[C@H]1CCNC[C@H](C)N1S(=O)(=O)c1ccc2cnccc2c1` [Example 41, (2S,7S)-6-(2,7-dimethyl-1,4-diazepan-1-ylsulfonyl)isoquinoline dihydrochloride], which inhibition in vivo at 10 % [2] is on record?
**A.** ≥ 15%

**Q.** With `CC1(C)CNCCCN1S(=O)(=O)c1ccc2cnccc2c1` [Example 22, 6-(2,2-dimethyl-1,4-diazepan-1-ylsulfonyl)isoquinoline dihydrochloride] as the molecule, how does the inhibition in vivo at 10 % [2] read?
**A.** ≥ 15%

**Q.** With `NC1CCN(S(=O)(=O)c2ccc3cnccc3c2)CC1` [Example 4, 6-(4-aminopiperidin-1-ylsulfonyl)isoquinoline dihydrochloride] as the molecule, how does the inhibition in vivo at 10 % [2] read?
**A.** 5 to 15%

**Q.** Which inhibition in vivo at 10 % [2] does the source give for `C[C@@H]1CNCCOCCN1S(=O)(=O)c1ccc2cnccc2c1` [Example 43, (R)-6-(5-methyl-1,4,7-oxadiazonan-4-ylsulfonyl)isoquinoline dihydrochloride] here?
**A.** ≥ 15%

**Q.** Which inhibition in vivo at 10 % [2] does the source give for `C[C@@H]1CNCCCCN1S(=O)(=O)c1ccc2cnccc2c1Br` [Example 23, (R)-5-bromo-6-(2-methyl-1,4-diazocan-1-ylsulfonyl)isoquinoline dihydrochloride] here?
**A.** ≥ 15%

**Q.** How did the pulse rate ([3]; 30 mg/kg) turn out when `C[C@@H]1CCNCCN1S(=O)(=O)c1ccc2cnccc2c1` [Example 34, (R)-6-(7-methyl-1,4-diazepan-1-ylsulfonyl)isoquinoline dihydrochloride] was run?
**A.** increased

**Q.** And the inhibition in vivo at 10 % [2]?
**A.** ≥ 15%
